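Assay format: 96-well plates, 48-hour exposure. GI50 = concentration required for 50% inhibition of growth.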 The source made the active and inactive calls. No stated cut-off is given here; in the data, active = GI50 up to about 1.1 µM and inactive = higher.
Columns and labels:
Assay in all cases: growth of human tumour cells (NCI), 48 h
[1] = test system: 786-0
[2] = test system: OVCAR-3
[3] = test system: PC-3
[4] = test system: SNB-19
[5] = test system: HT-29
[6] = test system: Hs-578T
[7] = test system: SNB-75
[8] = test system: ACHN
[9] = test system: COLO 205
[10] = test system: UACC-62
[11] = test system: OVCAR-5
[12] = test system: MCF7
[13] = test system: MDA-MB-231
[14] = test system: A549
[15] = test system: SF-295
[16] = test system: NCI-H460
[17] = test system: CCRF-CEM
[18] = test system: HOP-62
[19] = test system: UO-31
[20] = test system: EKVX
[21] = test system: SK-MEL-2
[22] = test system: HOP-92
[23] = test system: MDA-MB-435
[24] = test system: SK-MEL-5
[25] = test system: SF-268
[26] = test system: IGROV-1
[27] = test system: NCI/ADR-RES
[28] = test system: SK-MEL-28
[29] = test system: KM12
[30] = test system: A498
[31] = test system: T47D
[32] = test system: SK-OV-3
[33] = test system: HL-60
[34] = test system: NCI-H23
[35] = test system: CAKI-1
[36] = test system: MDA-N
[37] = test system: K562
[38] = test system: LOX IMVI
[39] = test system: Malme-3M
[40] = test system: U-251
[41] = test system: HCT-116
[42] = test system: HCC 2998
[43] = test system: SN12C
[44] = test system: SW-620
[45] = test system: OVCAR-4
[46] = test system: DU-145
[47] = test system: SR
[48] = test system: NCI-H522
[49] = test system: TK-10
[50] = test system: RPMI-8226
[51] = test system: SF-539
[52] = test system: RXF 393
[53] = test system: OVCAR-8
[54] = test system: NCI-H226
[55] = test system: UACC-257
[56] = test system: M14
[57] = test system: HCT-15
[58] = test system: MOLT-4

CC(=O)c1sc2[n+](c1C)C(=O)/C(=C\c1ccccc1Cl)S2
GI50 [1]: 21.9 µM (inactive) | GI50 [2]: 18 µM (inactive) | GI50 [3]: 22.5 µM (inactive) | GI50 [4]: 20.3 µM (inactive) | GI50 [5]: 20.6 µM (inactive) | GI50 [6]: 47.8 µM (inactive) | GI50 [7]: 26.8 µM (inactive) | GI50 [8]: 20.5 µM (inactive) | GI50 [9]: 14.9 µM (inactive) | GI50 [10]: 13.1 µM (inactive) | GI50 [11]: 24.3 µM (inactive) | GI50 [12]: 16.1 µM (inactive) | GI50 [13]: 25.4 µM (inactive) | GI50 [14]: 19.6 µM (inactive) | GI50 [15]: 16 µM (inactive) | GI50 [16]: 16.3 µM (inactive) | GI50 [17]: 27.6 µM (inactive) | GI50 [18]: 22.8 µM (inactive) | GI50 [19]: 19.3 µM (inactive) | GI50 [20]: 26.8 µM (inactive) | GI50 [21]: 24 µM (inactive) | GI50 [22]: 56.2 µM (inactive) | GI50 [23]: 15.3 µM (inactive) | GI50 [24]: 11.3 µM (inactive) | GI50 [25]: 23.2 µM (inactive) | GI50 [26]: 18.3 µM (inactive) | GI50 [27]: 21 µM (inactive) | GI50 [28]: 16.7 µM (inactive) | GI50 [29]: 17.3 µM (inactive) | GI50 [30]: 29.7 µM (inactive) | GI50 [31]: 15.7 µM (inactive) | GI50 [32]: 25.1 µM (inactive) | GI50 [33]: 20.7 µM (inactive) | GI50 [34]: 19.3 µM (inactive) | GI50 [35]: 24.5 µM (inactive) | GI50 [36]: 19.4 µM (inactive) | GI50 [37]: 25.5 µM (inactive) | GI50 [38]: 18 µM (inactive) | GI50 [39]: 17.5 µM (inactive) | GI50 [40]: 16.6 µM (inactive) | GI50 [41]: 20.7 µM (inactive) | GI50 [42]: 20 µM (inactive) | GI50 [43]: 34.2 µM (inactive) | GI50 [44]: 17.3 µM (inactive) | GI50 [45]: 29.2 µM (inactive) | GI50 [46]: 18.7 µM (inactive) | GI50 [47]: 18.3 µM (inactive) | GI50 [48]: 18.2 µM (inactive) | GI50 [49]: 26.9 µM (inactive) | GI50 [50]: 17.5 µM (inactive) | GI50 [51]: 21.8 µM (inactive) | GI50 [52]: 26.1 µM (inactive) | GI50 [53]: 24.3 µM (inactive) | GI50 [54]: 13.3 µM (inactive) | GI50 [55]: 19.4 µM (inactive) | GI50 [56]: 18.6 µM (inactive) | GI50 [57]: 14.1 µM | GI50 [58]: 22.4 µM (inactive)

— ChEMBL document CHEMBL1201862, “PubChem BioAssay data set” (2004)
